In paper PMC2721771 (Purinergic Signalling, 2008):
Like-named read-outs stand apart in the source and are kept apart here.

Assays:
hA3AR = conditions: cited from earlier work
rA3AR = conditions: cited from earlier work
mouse A3AR = conditions: cited from earlier work
[1] = Storage stability of the trimethylstannyl precursor; type: physicochemical; conditions: −8 °C for several months
rA1AR = conditions: cited from earlier work
[2] = biological target: T1, rat A3 adenosine receptor (Rattus norvegicus, UniProt P28647); type: binding; conditions: vs [125I]MRS1898 0.1 nM, rA3AR in CHO membranes, mean ± SEM
T1 sequence (P28647 1-320): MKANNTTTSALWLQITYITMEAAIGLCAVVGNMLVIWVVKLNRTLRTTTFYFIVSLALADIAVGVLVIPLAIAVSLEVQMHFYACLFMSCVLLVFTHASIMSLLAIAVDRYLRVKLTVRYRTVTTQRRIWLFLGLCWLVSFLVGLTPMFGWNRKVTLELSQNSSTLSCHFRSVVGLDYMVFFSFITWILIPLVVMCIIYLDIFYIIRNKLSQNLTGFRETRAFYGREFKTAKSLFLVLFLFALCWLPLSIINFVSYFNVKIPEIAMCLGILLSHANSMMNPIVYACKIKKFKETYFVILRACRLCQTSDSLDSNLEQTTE

In the case of `CNc1ncnc2c1ncn2[C@@H]1O[C@H](CO)[C@@H](O)[C@H]1O` [N^6-methyladenosine], the Ki (hA3AR) is given as 9.3 nM and the Ki (rA3AR; rA3AR) is given as 6390 nM.
In the case of `CCCn1cc2c(nc(NC(=O)Nc3ccc(OC)cc3)n3nc(-c4ccco4)nc23)n1` [[^3H]MRE 3008F20, 5-[[(4-methoxyphenyl)amino]carbonyl]amino-8-propyl-2-(2-furyl)-pyrazolo[4,3-e]1,2,4-triazolo[1,5-c]pyrimidine], the “binding to the mouse A3AR” value (mouse A3AR) is listed as “do not bind effectively” and the “binding to the rA3AR” value (rA3AR; rA3AR) is listed as “do not bind effectively”.
In the case of `CCNC(=O)[C@H]1O[C@@H](n2cnc3c(N)ncnc32)[C@H](O)[C@@H]1O` [[^3H]NECA, 5′-N-ethylcarboxamidoadenosine], the “binding affinity at the rA3AR” value (rA3AR; rA3AR) is given as “weak”.
In the case of `CCCCC#Cc1nc(NC)c2ncn([C@@H]3O[C@H](CO)[C@@H](O)[C@H]3O)c2n1` [[^3H]HEMADO, 2-hexyn-1-yl-N^6-methyladenosine], the Kd (hA3AR) is given as 1.1 nM and the “effect on the rA3AR” value (rA3AR; rA3AR) is given as “no effect”.
With `CNC(=O)[C@]12C[C@@H]1[C@@H](n1cnc3c(NCc4cccc([125I])c4)nc(Cl)nc31)[C@H](O)[C@@H]2O` [Compound 10] the stability upon storage [1] was “stable”.
In the case of `Nc1ccc(CCNc2ncnc3c2ncn3[C@@H]2O[C@H](CO)[C@@H](O)[C@H]2O)cc1I` [[^125I]I-APNEA, N^6-(4-amino-3-iodophenylethyl)-adenosine], the Kd (rA1AR; rA1AR) is listed as 1.32 nM and the Kd (rA3AR; rA3AR) is listed as 15 nM.
For `CNC(=O)[C@H]1O[C@@H](n2cnc3c(NCc4ccc(N)c(I)c4)ncnc32)[C@H](O)[C@@H]1O` [[^125I]I-AB-MECA, N^6-(4-amino-3-iodobenzyl)-5′-N-methylcarboxamidoadenosine], the Kd (rA1AR; read-out: affinity for rA1AR, radioligand affinity, A1) is listed as 3.42 nM, the Kd (rA3AR; rat A3AR) is listed as roughly 1 nM and the Kd (rA3AR; read-out: affinity for rA3AR, radioligand affinity, A3) is listed as 1.48 nM.
Compound `CCCOC(=O)c1c(-c2ccccc2)nc(CC)c(C(=O)SCC)c1CCC` [MRS1523, 5-propyl-2-ethyl-4-propyl-3-(ethylsulfanylcarbonyl)-6-phenylpyridine-5-carboxylate] has a Ki [2] of 518 ± 236 nM.
For `CC[C@@H]1CN2C(=O)N(C)c3nc(-c4ccccc4)[nH]c3C2=N1` [[^3H]PSB-11, (R)-4-methyl-8-ethyl-2-phenyl-imidazo[2,1-i]purin-5-one], the “binding to the mouse A3AR” value (mouse A3AR) is given as “do not bind effectively” and the “binding to the rA3AR” value (rA3AR; rA3AR) is given as “do not bind effectively”.
